12 molecules from US10954216B2, “BMP-signal-inhibiting compound” (RIKEN, priority 2016, dated 2021) can be followed below.

The subject of the first assay is BMP signal in MDA-231-D-BREFluc/Rluc cells. The assay can be described thus: BMP signal inhibitory effect (AlphaScreen SureFire SMAD1 p-Ser463/465, BMP-6 stimulation). Format: cell-based.
Conditions: not given
In short, it runs like this: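 MDA-231-D-BREFluc/Rluc cells were pretreated with compound for 2 h at 37° C, then stimulated with BMP-6 for 30 min. SMAD1 p-Ser463/465 in lysates was measured by AlphaScreen SureFire.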
(In general: Bead proximity is the source of the signal in Alpha formats.)
As usually defined, the IC50 is the concentration that inhibits the measured activity by half. `CCn1cc(-c2ccnc(Nc3ccc(C(=O)N4CC5CCC(C4)N5C)cc3)n2)c(-c2cccnc2)n1` [Example 117, (4-((4-(1-Ethyl-3-(pyridin-3-yl)-1H-pyrazol-4-yl)pyrimidin-2-yl)amino)phenyl) (8-methyl-3,8-diazabicyclo [3.2.1]octan-3-yl)methanone]: half-maximal inhibition (IC50) required 0.012 µM.

The same assay, now with this note: BMP-6 stimulated MDA-231-D-BREFluc/Rluc cells, phospho-SMAD1 AlphaScreen; read-out: IC50.
Take `CCn1cc(-c2ccnc(Nc3ccc4c(c3)CN(CC(C)(C)O)CC4)n2)c(-c2cccnc2)n1` [Example 106, 1-(7-((4-(1-Ethyl-3-(pyridin-3-yl)-1H-pyrazol-4-yl)pyrimidin-2-yl)amino)-3,4-dihydroisoquinolin-2(1H)-yl)-2-methylpropan-2-ol]: the IC50 is 0.0035 µM.

As to `COCCn1cc(-c2ccnc(Nc3ccc(OC4CN(CC(C)(C)O)C4)cc3)n2)c(-c2cccnc2)n1` [Example 107, 1-(3-(4-((4-(1-(2-Methoxyethyl)-3-(pyridin-3-yl)-1H-pyrazol-4-yl)pyrimidin-2-yl)amino)phenoxy)azetidin-1-yl)-2-methylpropan-2-ol], the IC50 was found to be 0.0244 µM.

Take `CCn1cc(-c2ccnc(Nc3ccc(OC4CN(CC(C)(C)O)C4)cc3)n2)c(-c2cccnc2)n1` [Example 108, 1-(3-(4-((4-(1-Ethyl-3-(pyridin-3-yl)-1H-pyrazol-4-yl)pyrimidin-2-yl)amino)phenoxy)azetidin-1-yl)-2-methylpropan-2-ol]: the IC50 was found to be 0.0133 µM.

`CCn1cc(-c2ccnc(Nc3ccc4c(c3)CCN(CC(O)COC)C4)n2)c(-c2cccnc2)n1` (stereo not drawn) [Example 109, 1-(6-((4-(1-Ethyl-3-(pyridin-3-yl)-1H-pyrazol-4-yl)pyrimidin-2-yl)amino)-3,4-dihydroisoquinolin-2 (1H)-yl)-3-methoxypropan-2-ol]: the IC50 came to 0.0057 µM.

Regarding `COCC(O)CN1CCN(c2ccc(Nc3nccc(-c4cn(C5COC5)nc4-c4cccnc4)n3)cc2)CC1` (stereo not drawn) [Example 110, 1-Methoxy-3-(4-(4-((4-(1-(oxetan-3-yl)-3-(pyridin-3-yl)-1H-pyrazol-4-yl)pyrimidin-2-yl)amino)phenyl)piperazin-1-yl)propan-2-ol], the IC50 amounted to 0.0328 µM.

`COCC(O)CN1CCN(c2ccc(Nc3nccc(-c4cn(CC(C)(C)O)nc4-c4cccnc4)n3)cc2)CC1` (stereo not drawn) [Example 111, 1-(4-(2-((4-(4-(2-Hydroxy-3-methoxypropyl)piperazin-1-yl)phenyl)amino)pyrimidin-4-yl)-3-(pyridin-3-yl)-1H-pyrazol-1-yl)-2-methylpropan-2-ol]: the half-inhibitory concentration (IC50) is 0.0273 µM.

For the molecule `CCn1cc(-c2ccnc(Nc3ccc(CCN4CCN(C)CC4)cc3)n2)c(-c2cccnc2)n1` [Example 112, 4-(1-ethyl-3-(pyridin-3-yl)-1H-pyrazol-4-yl)-N-(4-(2-(4-methylpiperazin-1-yl)ethyl)phenyl)pyrimidin-2-amine], the IC50 turned out to be 0.0117 µM.

With `CCn1cc(-c2ccnc(Nc3ccc(C4CCCN(C)C4)cc3)n2)c(-c2cccnc2)n1` (stereo not drawn) [Example 113, 4-(1-Ethyl-3-(pyridin-3-yl)-1H-pyrazol-4-yl)-N-(4-(1-methylpiperidin-3-yl)phenyl)pyrimidin-2-amine], the IC50 amounted to 0.008 µM.

Turning to `CCn1cc(-c2ccnc(Nc3cccc(C4CCN(C)CC4)c3)n2)c(-c2cccnc2)n1` [Example 114, 4-(1-Ethyl-3-(pyridin-3-yl)-1H-pyrazol-4-yl)-N-(3-(1-methylpiperidin-4-yl)phenyl)pyrimidin-2-amine], the IC50 is 0.0009 µM.

Turning to `CCn1cc(-c2ccnc(Nc3ccc4c(c3)CCN(C)CC4)n2)c(-c2cccnc2)n1` [Example 115, N-(4-(1-Ethyl-3-(pyridin-3-yl)-1H-pyrazol-4-yl)pyrimidin-2-yl)-3-methyl-2,3,4,5-tetrahydro-1H-benzo [d] azepin-7-amine], the IC50 amounted to 0.0011 µM.

For `CCn1cc(-c2ccnc(Nc3ccc(C(=O)N4CCN(C)CC4)cc3)n2)c(-c2cccnc2)n1` [Example 116, (4-((4-(1-Ethyl-3-(pyridin-3-yl)-1H-pyrazol-4-yl)pyrimidin-2-yl)amino)phenyl)(4-methylpiperazin-1-yl)methanone], the IC50 came to 0.0151 µM.
